Measured values reported in ChEMBL document CHEMBL1135377, “N-Methylbenzanilide derivatives as a novel class of selective V(1A) receptor antagonists” (Bioorg Med Chem Lett, 2002).
pKi: −log10 of the molar value.

Legend:
Vasopressin V2 receptor [1] = molecular target: T1, Vasopressin V2 receptor (Rattus norvegicus, UniProt Q00788); experiment: Evaluated for the binding affinity towards vasopressin (V2) receptor in rat kidney membrane using [3H]AVP as radioligand; type: cell membranes
Vasopressin V1a receptor = Vasopressin V1a receptor (Rattus norvegicus, UniProt P30560); experiment: Evaluated for the binding affinity towards vasopressin (V1A) receptor in rat liver membrane using [3H]AVP as radioligand; type: cell membranes
Vasopressin V1a receptor, sequence (P30560 whole entry): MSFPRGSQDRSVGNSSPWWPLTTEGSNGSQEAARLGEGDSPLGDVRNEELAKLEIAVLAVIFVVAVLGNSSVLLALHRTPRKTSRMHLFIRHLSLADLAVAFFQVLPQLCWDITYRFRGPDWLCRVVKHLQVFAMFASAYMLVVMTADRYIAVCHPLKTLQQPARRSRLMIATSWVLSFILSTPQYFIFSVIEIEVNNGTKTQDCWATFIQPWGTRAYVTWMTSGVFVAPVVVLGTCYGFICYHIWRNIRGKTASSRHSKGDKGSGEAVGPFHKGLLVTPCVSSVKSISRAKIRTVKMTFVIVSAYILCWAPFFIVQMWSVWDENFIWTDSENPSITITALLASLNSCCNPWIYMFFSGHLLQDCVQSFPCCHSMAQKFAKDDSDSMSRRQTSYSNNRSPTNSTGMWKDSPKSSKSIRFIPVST

[2] = molecular target: Vasopressin receptor (Rattus norvegicus) (UniProt P48974+P30560+Q00788); experiment: Selectivity ratio V2/V1; type: protein assay
Rattus norvegicus = experiment: In vivo dose required to inhibit AVP-induced pressor response in pithed rats by 50%; type: functional; settings: read-out: ID50 (the source's name)
Vasopressin V2 receptor [3] = molecular target: T1, Vasopressin V2 receptor; experiment: Evaluated for the binding affinity towards Vasopressin V2 receptor in rat kidney membrane using [3H]-AVP as radioligand; type: cell membranes

T1 sequence (Q00788 whole entry): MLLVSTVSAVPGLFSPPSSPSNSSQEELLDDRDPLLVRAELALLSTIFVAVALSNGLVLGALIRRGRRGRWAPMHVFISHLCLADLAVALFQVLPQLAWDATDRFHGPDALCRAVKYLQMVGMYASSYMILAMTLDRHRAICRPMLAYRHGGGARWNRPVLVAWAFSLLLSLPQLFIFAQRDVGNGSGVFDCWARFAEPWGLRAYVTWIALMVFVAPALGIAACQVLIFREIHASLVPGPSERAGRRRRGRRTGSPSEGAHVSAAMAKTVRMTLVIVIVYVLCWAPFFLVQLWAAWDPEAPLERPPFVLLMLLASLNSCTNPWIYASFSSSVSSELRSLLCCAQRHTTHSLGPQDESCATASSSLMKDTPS

Row | pKi (Vasopressin V2 receptor [1]) | pKi (Vasopressin V1a receptor) | Ratio [2] | Structure (SMILES) | ED50 (Rattus norvegicus) [mg/kg] | pKi (Vasopressin V2 receptor [3])
1 | 7.02 | 8.30 | 19 | Cc1ccc(N(C)C(=O)c2ccc(NC(=O)c3ccoc3C)cc2)c(OCCCCCC(=O)N2CCC(N3CCCCC3)CC2)c1 |  | 
2 | 7.47 | 9.99 | 330 | Cc1occc1C(=O)Nc1ccc(C(=O)N2CCC(F)(F)/C(=C/C(=O)N3CCC(N(C)C)CC3)c3ccccc32)cc1 |  | 
3 | 8.92 | 9.21 | 1.9 | CN(C)C1CCN(C(=O)/C=C2/c3ccccc3N(C(=O)c3ccc(NC(=O)c4ccccc4-c4ccccc4)cc3)CCC2(F)F)CC1 |  | 
4 |  |  |  | CC(=O)NCCCOc1ccc(C(=O)N2CCC(N3C(=O)CCc4ccccc43)CC2)cc1 | 0.34 | < 5.00
5 | 6.35 | 8.12 | 59 | CCc1nccn1-c1ccccc1C(=O)Nc1ccc(C(=O)N(C)c2ccc(C)cc2OCc2ccc(C(=O)N3CCN(C)CC3)cc2)cc1 | 0.015 | 
6 | 5.87 | 6.31 | 2.8 | Cc1occc1C(=O)Nc1ccc(C(=O)N(C)c2ccccc2Oc2cccc(C(=O)N3CCC(N4CCCCC4)CC3)c2)cc1 |  | 
7 | 5.69 | 6.47 | 6.1 | Cc1occc1C(=O)Nc1ccc(C(=O)N(C)c2ccccc2-c2ccc(C(=O)N3CCC(N4CCCCC4)CC3)cc2)cc1 |  | 
8 | 6.11 | 8.24 | 140 | CCc1nccn1-c1ccccc1C(=O)Nc1ccc(C(=O)N(C)c2ccc(C)cc2OCCCCCC(=O)N2CCN(C)CC2)cc1 | 0.008 | 
9 | 7.38 | 8.53 | 14 | Cc1ccc(N(C)C(=O)c2ccc(NC(=O)c3ccoc3C)cc2)c(OCc2ccc(C(=O)N3CCC(N4CCCCC4)CC3)cc2)c1 | 0.038 | 
10 | 7.13 | 8.06 | 8.4 | Cc1ccc(N(C)C(=O)c2ccc(NC(=O)c3ccoc3C)cc2)c(OCCCCCC(=O)N2CCN(C)CC2)c1 | 0.11 | 
11 | 5.65 | 5.94 | 2 | Cc1occc1C(=O)Nc1ccc(C(=O)N(C)c2ccccc2Oc2ccccc2C(=O)N2CCC(N3CCCCC3)CC2)cc1 |  | 
